Experimental data published in PMC9527238, “Glutamate and GABAA receptor crosstalk mediates homeostatic regulation of neuronal excitation in the mammalian brain” (Signal Transduction and Targeted Therapy, 2022).

Tests used:
α1β2 GABAARs = target: T1, α1β2 GABAARs (Rattus norvegicus, UniProt P62813+P63138); assay: [3H]glutamate binding assay, plasma membranes of HEK293 cells overexpressing α1 and β2; conditions: 40 nM [3H]glutamate + 0.4 mM non-radiolabeled competitor
T1 construct: expressed in transfected cells; host or cells: HEK293
Experimental: For membrane preparation, transfected or non-transfected HEK293 cells were washed twice with cold PBS and harvested by scraping into 5 ml cold PBS. Cells were then centrifuged at 1200 × g for 12 min at 4 °C and medium was removed. The washing procedure was repeated twice. Then the cell pellet was re-suspended into 1 ml of 50 mM Tris-HCl buffer (pH 7.4, with protease inhibitor) and homogenized using syringes with 18-G, 21-G and 23-G needles.
To separate the membrane, the homogenate were centrifuged for 20 min at 20,000 × g at 4 °C. Then the pellet was re-suspended into 1 ml of 50 mM Tris-HCl buffer, pH 7.4 and centrifuged again. After repeating this procedure for one more time, the pellet was re-suspended into 1 ml of 50 mM Tris-HCl buffer, pH 7.4 and the protein concentration was measured.
To conduct the binding assay, 100 µg membrane enriched preparation was incubated with 40 nM [3H]-Glutamate in a total volume of 0.5 ml in 50 mM Tris-HCl buffer, pH 7.4 for 1 h on ice. […] Then the reaction was terminated by quickly filtering the solution on Whatman filter paper and washing by 3.5 ml Tris-HCl buffer. Radioactivity was measured in a Beckman liquid scintillation counter.

α1 β2 ^I180A γ2 GABAAR = target: T2, α1 β2 ^I180A γ2 GABAAR (Rattus norvegicus, UniProt P62813+P63138, I205A); assay: Patch clamp, HEK293, mutant GABAAR; assay type: cell-based; conditions: GABA-evoked currents
T2 construct: expressed in transfected cells; host or cells: HEK293
Experimental: (§1) To positively confirm one of these two putative binding sites involved in glutamate binding, we performed a systemic mutational analysis of critical amino acids around these two sites followed by electrophysiological characterizations of their impacts on glutamate potentiation in HEK293 cells expressing wild-type or mutated α1β2γ2 GABAARs (Table 1).
(§2) HEK293 cells were cultured in DMEM (Invitrogen) supplemented with 10% fetal bovine serum. Cells were grown to 40–60% confluence and transiently transfected using Lipofectamine 2000 (Invitrogen) with 1:0.5–1 plasmid/lipid ratio. Cells were transfected with a pBK-CMV expression vector containing a rat recombinant GABAAR α, β or γ subunits. Co-transections were done with a plasmid ratio of 1:1 αβ and 2:2:1 for αβγ subunit combinations, respectively. pcDNA3.1-GFP was also co-transfected along with GABAAR subunits as a transfected marker in order to facilitate the visualization of the transfected cells during electrophysiological experiments. Cells were re-plated on glass coverslips after 15–20 h transfection and were cultured for an additional 15–24 h before whole-cell patch-clamp recordings.
(§3) The site-directed mutagenesis of α, β or γ subunits were performed by using the QuikChange method (Stratagene). […] Wild-type or mutant subunits were transfected in HEK293 cells and subjected to electrophysiology examinations.
(§4) Whole-cell patch-clamp recordings were performed under voltage-clamp mode using an Axopatch 200B or 1D patch-clamp amplifier (Molecular Devices) on HEK293 cells and cultured neurons. Whole-cell currents were recorded at a holding potential of −60 mV, and signals were filtered at 2 kHz, digitized at 10 kHz (Digidata 1322 A). Recording pipettes (3–5 MΩ) were filled with the intracellular solution that contained (mM): CsCl 140, HEPES 10, Mg-ATP 4, QX-314 5, pH 7.20; osmolarity, 290–295 mOsm. BAPTA (10 mM) was added in the intracellular solution. The coverslips were continuously superfused with the extracellular solution containing (mM): NaCl 140, KCl 5.4, HEPES 10, MgCl2 1.0, CaCl2 1.3, glucose 20, pH 7.4; osmolarity, 305–315 mOsm. […] Dose–response curves were created by fitting data to Hill equation: I = Imax/[1 + (EC50/[A])^n], where I is the current, Imax is the maximum current, [A] is a given concentration of agonist, n is the Hill coefficient. […] All experiments were performed at room temperature.

α1 β2^G126A γ2 GABAAR = target: T3, α1 β2^G126A γ2 GABAAR (Rattus norvegicus, UniProt P62813+P63138, G151A); assay: Patch clamp, HEK293, mutant GABAAR; assay type: cell-based
T3 construct: expressed in transfected cells; host or cells: HEK293
Experimental: as §1, §2, §3, §4

α1 β2^Q63A γ2 GABAAR = target: T4, α1 β2^Q63A γ2 GABAAR (Rattus norvegicus, UniProt P62813+P63138, Q88A); assay: Patch clamp, HEK293, mutant GABAAR; assay type: cell-based
T4 construct: expressed in transfected cells; host or cells: HEK293
Experimental: as §1, §2, §3, §4

α1 β2^V177A γ2 GABAAR = target: T5, α1 β2^V177A γ2 GABAAR (Rattus norvegicus, UniProt P62813+P63138, V202A); assay: Patch clamp, HEK293, mutant GABAAR; assay type: cell-based
T5 construct: expressed in transfected cells; host or cells: HEK293
Experimental: as §1, §2, §3, §4

α1 β2^Y61A γ2 GABAAR = target: T6, α1 β2^Y61A γ2 GABAAR (Rattus norvegicus, UniProt P62813+P63138, Y86A); assay: Patch clamp, HEK293, mutant GABAAR; assay type: cell-based
T6 construct: expressed in transfected cells; host or cells: HEK293
Experimental: as §1, §2, §3, §4

α1^E208A β2 γ2 GABAAR = target: T7, α1^E208A β2 γ2 GABAAR (Rattus norvegicus, UniProt P62813+P63138, E235A); assay: Patch clamp, HEK293, mutant GABAAR; assay type: cell-based; conditions: GABA-evoked currents
T7 construct: expressed in transfected cells; host or cells: HEK293
Experimental: as §1, §2, §3, §4

α1^F99A β2 γ2 GABAAR = target: T8, α1^F99A β2 γ2 GABAAR (Rattus norvegicus, UniProt P62813+P63138, F126A); assay: Patch clamp, HEK293, mutant GABAAR; assay type: cell-based; conditions: GABA-evoked currents
T8 construct: expressed in transfected cells; host or cells: HEK293
Experimental: as §1, §2, §3, §4

α1^H101A β2 γ2 GABAAR = target: T9, α1^H101A β2 γ2 GABAAR (Rattus norvegicus, UniProt P62813+P63138, H128A); assay: Patch clamp, HEK293, mutant GABAAR; assay type: cell-based; conditions: GABA-evoked currents
T9 construct: expressed in transfected cells; host or cells: HEK293
Experimental: as §1, §2, §3, §4

α1^S158A β2 γ2 GABAAR = target: T10, α1^S158A β2 γ2 GABAAR (Rattus norvegicus, UniProt P62813+P63138, S185A); assay: Patch clamp, HEK293, mutant GABAAR; assay type: cell-based; conditions: GABA-evoked currents
T10 construct: expressed in transfected cells; host or cells: HEK293
Experimental: as §1, §2, §3, §4

α1^S205A β2 γ2 GABAAR = target: T11, α1^S205A β2 γ2 GABAAR (Rattus norvegicus, UniProt P62813+P63138, S232A); assay: Patch clamp, HEK293, mutant GABAAR; assay type: cell-based; conditions: GABA-evoked currents
T11 construct: expressed in transfected cells; host or cells: HEK293
Experimental: as §1, §2, §3, §4

α1^T206A β2 γ2 GABAAR = target: T12, α1^T206A β2 γ2 GABAAR (Rattus norvegicus, UniProt P62813+P63138, T233A); assay: Patch clamp, HEK293, mutant GABAAR; assay type: cell-based; conditions: GABA-evoked currents
T12 construct: expressed in transfected cells; host or cells: HEK293
Experimental: as §1, §2, §3, §4

α1^Y159A β2 γ2 GABAAR = target: T13, α1^Y159A β2 γ2 GABAAR (Rattus norvegicus, UniProt P62813+P63138, Y186A); assay: Patch clamp, HEK293, mutant GABAAR; assay type: cell-based; conditions: GABA-evoked currents
T13 construct: expressed in transfected cells; host or cells: HEK293
Experimental: as §1, §2, §3, §4

α1 β2^E181G γ2 GABAAR = target: T14, α1 β2^E181G γ2 GABAAR (Rattus norvegicus, UniProt P62813+P63138, E206G); assay: Patch clamp, HEK293, mutant GABAAR; assay type: cell-based
T14 construct: expressed in transfected cells; host or cells: HEK293
Description: (§5) The subunits are color-coded individually. The boxed regions are further enlarged in the middle panels, highlighting the predicted glutamate binding pocket in the α+ and β− interface, just below the loop C. […] Relative potentiation was obtained by normalizing potentiation observed in the mutated receptor to that in the respective wild-type receptor.
as §1, §2, §3, §4

α1^K104D β2 γ2 GABAAR = target: T15, α1^K104D β2 γ2 GABAAR (Rattus norvegicus, UniProt P62813+P63138, K131D); assay: Patch clamp, HEK293, mutant GABAAR; assay type: cell-based
T15 construct: expressed in transfected cells; host or cells: HEK293
Description: as §5, §1, §2, §3, §4

α1^K155D β2 γ2 GABAAR = target: T16, α1^K155D β2 γ2 GABAAR (Rattus norvegicus, UniProt P62813+P63138, K182D); assay: Patch clamp, HEK293, mutant GABAAR; assay type: cell-based; conditions: GABA-evoked currents
T16 construct: expressed in transfected cells; host or cells: HEK293
Description: as §5, §1, §2, §3, §4

## NCCCC(=O)O [GABA, gamma-Aminobutyric acid]
α1β2 GABAARs
  [3H]glutamate binding activity in presence of competitor: 939.2 ± 88.8 CPM
α1 β2 ^I180A γ2 GABAAR
  Imax (nA): 1.7 ± 0.4 nA
α1 β2^G126A γ2 GABAAR; GABA dose-response
  Hill Slope: 2.28 ± 0.74
α1 β2^G126A γ2 GABAAR; GABA-evoked currents
  Imax (nA): 1.3 ± 0.4 nA
α1 β2^Q63A γ2 GABAAR; GABA dose-response
  Hill Slope: 2.09 ± 0.93
α1 β2^Q63A γ2 GABAAR; GABA-evoked currents
  Imax (nA): 1.0 ± 0.5 nA
α1 β2^V177A γ2 GABAAR; GABA dose-response
  Hill Slope: 1.12 ± 0.37
α1 β2^V177A γ2 GABAAR; GABA-evoked currents
  Imax (nA): 1.7 ± 0.9 nA
α1 β2^Y61A γ2 GABAAR; GABA dose-response
  Hill Slope: 2.91 ± 1.30
α1 β2^Y61A γ2 GABAAR; GABA-evoked currents
  Imax (nA): 1.0 ± 0.5 nA
α1^E208A β2 γ2 GABAAR
  Imax (nA): 1.8 ± 0.8 nA
α1^F99A β2 γ2 GABAAR
  Imax (nA): 1.0 ± 0.7 nA
α1^H101A β2 γ2 GABAAR
  Imax (nA): 0.9 ± 0.5 nA
α1^S158A β2 γ2 GABAAR
  Imax (nA): 1.3 ± 0.5 nA
α1^S205A β2 γ2 GABAAR
  Imax (nA): 2.3 ± 1.1 nA
α1^T206A β2 γ2 GABAAR
  Imax (nA): 1.9 ± 0.8 nA
α1^Y159A β2 γ2 GABAAR
  Imax (nA): 1.1 ± 0.5 nA
α1 β2^E181G γ2 GABAAR; GABA dose-response
  Hill Slope: 1.59 ± 0.14
α1 β2^E181G γ2 GABAAR; GABA-evoked currents
  Imax (nA): 1.1 ± 0.2 nA
α1^K104D β2 γ2 GABAAR; GABA dose-response
  Hill Slope: 1.70 ± 0.17
α1^K104D β2 γ2 GABAAR; GABA-evoked currents
  Imax (nA): 2.3 ± 0.7 nA
α1^K155D β2 γ2 GABAAR
  Imax (nA): 1.3 ± 0.5 nA
